Tested on: JR251 or RBL cells
Test: Store-operated calcium entry, either JR251 or RBL cells, or both
Assay type: cell-based
Procedure, shortened: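 FLIPR calcium-entry readout in fluo-4-loaded cells held in Ca2+-free HBSS before calcium add-back. For RBL-2H3, store depletion used thapsigargin for 25 min after a 5 min compound pre-incubation, and IC50 was based on the 7 s Upslope. For Orai1/STIM1 stable cells, compound was pre-incubated 30 min and IC50 was based on Peak-Basal.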

| IC50 [µM] | SMILES |
| --- | --- |
| < 10 | Cc1ccc(-c2csc(NC(=O)c3nc4ccccc4s3)c2C(=O)O)c(F)c1F [2-(benzo[d]thiazole-2-carboxamido)-4-(2,3-difluoro-4-methylphenyl)thiophene-3-carboxylic acid] |
| < 10 | O=C(CCc1c(Cl)cccc1Cl)Nc1scc(-c2ccc(Br)cc2)c1C(=O)O [4-(4-bromophenyl)-2-(3-(2,6-dichlorophenyl)propanamido)thiophene-3-carboxylic acid] |
| < 10 | O=C(Nc1scc(-c2ccc(Cl)c(F)c2)c1C(=O)O)c1nc2ccccc2o1 [2-(benzo[d]oxazole-2-carboxamido)-4-(4-chloro-3-fluorophenyl)thiophene-3-carboxylic acid] |
| < 10 | COc1cccc(C(=O)Nc2scc(-c3ccc(Cl)cc3)c2C(=O)O)n1 [4-(4-chlorophenyl)-2-(6-methoxypicolinamido)thiophene-3-carboxylic acid] |
| < 10 | Cc1ccc(-c2csc(NC(=O)c3cc4ccccc4o3)c2C(=O)O)c(F)c1F [2-(benzofuran-2-carboxamido)-4-(2,3-difluoro-4-methylphenyl)thiophene-3-carboxylic acid] |
| < 10 | Cc1ccc(-c2csc(NC(=O)c3cc4c(F)cccc4o3)c2C(=O)O)c(F)c1F [4-(2,3-difluoro-4-methylphenyl)-2-(4-fluorobenzofuran-2-carboxamido)thiophene-3-carboxylic acid] |
| < 10 | O=C(Nc1scc(-c2ccc(Cl)cc2)c1C(=O)O)c1ccc2ccccc2n1 [4-(4-chlorophenyl)-2-(quinoline-2-carboxamido)thiophene-3-carboxylic acid] |
| < 10 | O=C(Nc1scc(-c2ccc(Cl)cc2)c1C(=O)O)c1ccncc1 [4-(4-chlorophenyl)-2-(isonicotinamido)thiophene-3-carboxylic acid] |
| < 10 | Cc1ccc(-c2csc(NC(=O)c3cc(-c4ccccc4)oc3C)c2C(=O)O)cc1 [2-(2-methyl-5-phenylfuran-3-carboxamido)-4-p-tolylthiophene-3-carboxylic acid] |
| < 10 | O=C(Nc1scc(-c2ccc(Br)cc2)c1C(=O)O)c1ccc2ccccc2n1 [4-(4-bromophenyl)-2-(quinoline-2-carboxamido)thiophene-3-carboxylic acid] |
| < 10 | O=C(CCc1ccc(F)cc1)Nc1scc(-c2ccc(Cl)cc2)c1C(=O)O [4-(4-chlorophenyl)-2-(3-(4-fluorophenyl)propanamido)thiophene-3-carboxylic acid] |
| < 10 | O=C(CCc1ccc(F)cc1)Nc1scc(-c2ccc(Br)cc2)c1C(=O)O [4-(4-bromophenyl)-2-(3-(4-fluorophenyl)propanamido)thiophene-3-carboxylic acid] |
| < 10 | O=C(O)c1c(-c2ccc(Br)cc2)csc1NC(=O)C1Cc2ccccc2C1 [4-(4-bromophenyl)-2-(2,3-dihydro-1H-indene-2-carboxamido)thiophene-3-carboxylic acid] |
| < 10 | O=C(Nc1scc(-c2ccc(Br)cc2)c1C(=O)O)c1cccnc1 [4-(4-bromophenyl)-2-(nicotinamido)thiophene-3-carboxylic acid] |
| < 10 | Cc1ccc(-c2csc(NC(=O)/C=C/c3ccco3)c2C(=O)O)cc1 [(E)-2-(3-(furan-2-yl)acrylamido)-4-p-tolylthiophene-3-carboxylic acid] |
| < 10 | O=C(Nc1scc(-c2ccc(Br)cc2)c1C(=O)O)/C(F)=C/c1ccccc1 [(Z)-4-(4-bromophenyl)-2-(2-fluoro-3-phenylacryl amido)thiophene-3-carboxylic acid] |
| < 10 | Cc1ccc(-c2csc(NC(=O)c3ccc(-c4ccccc4)s3)c2C(=O)O)cc1 [2-(5-phenylthiophene-2-carboxamido)-4-p-tolylthiophene-3-carboxylic acid] |
| < 10 | Cc1ccc(-c2csc(NC(=O)c3nc4c(F)cccc4s3)c2C(=O)O)c(F)c1F [4-(2,3-difluoro-4-methylphenyl)-2-(4-fluorobenzo[d]thiazole-2-carboxamido)thiophene-3-carboxylic acid] |
| < 10 | O=C(Nc1scc(-c2ccc(F)c(O)c2F)c1C(=O)O)c1cc2ccccc2o1 [2-(benzofuran-2-carboxamido)-4-(2,4-difluoro-3-hydroxyphenyl)thiophene-3-carboxylic acid] |
| < 10 | CC(C)C(C(=O)Nc1scc(-c2ccc(Cl)c(Cl)c2)c1C(=O)O)c1ccc(Cl)cc1 (stereo not shown) [2-(2-(4-chlorophenyl)-3-methylbutanamido)-4-(3,4-dichlorophenyl)thiophene-3-carboxylic acid] |
| < 10 | O=C(Nc1scc(-c2ccc(Cl)cc2)c1C(=O)O)c1nc2c([N+](=O)[O-])cccc2s1 [4-(4-chlorophenyl)-2-(4-nitrobenzo[d]thiazole-2-carboxamido)thiophene-3-carboxylic acid] |

| IC50 [µM] | SMILES |
| --- | --- |
| < 10 | O=C(NCCc1ccccc1)Nc1scc(-c2ccc(Cl)cc2)c1C(=O)O [4-(4-chlorophenyl)-2-(3-phenethylureido)thiophene-3-carboxylic acid] |
| < 10 | O=C(Nc1scc(-c2ccc(Cl)cc2)c1C(=O)O)c1ccc(Cl)nn1 [4-(4-chlorophenyl)-2-(6-chloropyridazine-3-carboxamido)thiophene-3-carboxylic acid] |
| < 10 | O=C(CCc1ccco1)Nc1scc(-c2ccc(Cl)cc2)c1C(=O)O [4-(4-chlorophenyl)-2-(3-(furan-2-yl)propanamido)thiophene-3-carboxylic acid] |
| < 10 | Cc1ccc(-c2csc(NC(=O)c3nc4ccccc4s3)c2C(=O)O)c(F)c1 [2-(benzo[d]thiazole-2-carboxamido)-4-(2-fluoro-4-methylphenyl)thiophene-3-carboxylic acid] |
| < 10 | COc1cc(-c2csc(NC(=O)c3nc4ccccc4o3)c2C(=O)O)ccc1Cl [2-(benzo[d]oxazole-2-carboxamido)-4-(4-chloro-3-methoxyphenyl)thiophene-3-carboxylic acid] |
| < 10 | Cc1nnsc1C(=O)Nc1scc(-c2ccc(Br)cc2)c1C(=O)O [4-(4-bromophenyl)-2-(4-methyl-1,2,3-thiadiazole-5-carboxamido)thiophene-3-carboxylic acid] |
| < 10 | Cc1ccc(-c2csc(NC(=O)c3nc4ccccc4o3)c2C(=O)O)c(F)c1 [2-(benzo[d]oxazole-2-carboxamido)-4-(2-fluoro-4-methylphenyl)thiophene-3-carboxylic acid] |
| < 10 | O=C(CCc1ccccc1F)Nc1scc(-c2ccc(Br)cc2)c1C(=O)O [4-(4-bromophenyl)-2-(3-(2-fluorophenyl)propanamido)thiophene-3-carboxylic acid] |
| < 10 | O=C(Nc1scc(/C=C/c2ccc(Cl)cc2)c1C(=O)O)c1cc2ccccc2o1 [(E)-2-(benzofuran-2-carboxamido)-4-(4-chlorostyryl)thiophene-3-carboxylic acid] |
| < 10 | COc1cc(C)c(-c2csc(NC(=O)c3cc4ccccc4o3)c2C(=O)O)cc1C [2-(benzofuran-2-carboxamido)-4-(4-methoxy-2,5-dimethylphenyl)thiophene-3-carboxylic acid] |
| < 10 | O=C(Nc1scc(/C=C/c2ccc(F)cc2)c1C(=O)O)c1cc2ccccc2o1 [(E)-2-(benzofuran-2-carboxamido)-4-(4-fluorostyryl)thiophene-3-carboxylic acid] |
| < 10 | N#Cc1cccc2nc(C(=O)Nc3scc(-c4ccc(Cl)cc4)c3C(=O)O)oc12 [4-(4-chlorophenyl)-2-(7-cyanobenzo[d]oxazole-2-carboxamido)thiophene-3-carboxylic acid] |
| < 10 | O=C(Nc1scc(-c2ccc(Cl)cc2)c1C(=O)O)c1nc2cccc(Br)c2o1 [2-(7-bromobenzo[d]oxazole-2-carboxamido)-4-(4-chlorophenyl) thiophene-3-carboxylic acid] |
| < 10 | O=C(Nc1scc(-c2cc3cccc(-c4cc[nH]n4)c3o2)c1C(=O)O)c1cc2ccccc2o1 [4-(7-(1H-pyrazol-3-yl)benzofuran-2-yl)-2-(benzofuran-2-carboxamido)thiophene-3-carboxylic acid] |
| < 10 | Cc1ccc(-c2csc(NC(=O)c3nc4cc(F)c(F)cc4o3)c2C(=O)O)c(F)c1F [4-(2,3-difluoro-4-methylphenyl)-2-(5,6-difluorobenzo[d]oxazole-2-carboxamido)thiophene-3-carboxylic acid] |
| < 10 | Cc1cc(-c2csc(NC(=O)c3cc4ccccc4o3)c2C(=O)O)c(F)cc1Cl [2-(benzofuran-2-carboxamido)-4-(4-chloro-2-fluoro-5-methylphenyl)thiophene-3-carboxylic acid] |
| < 10 | Cc1ccc(-c2csc(NC(=O)c3cn4ccsc4n3)c2C(=O)O)c(F)c1F [4-(2,3-difluoro-4-methylphenyl)-2-(imidazo[2,1-b]thiazole-6-carboxamido)thiophene-3-carboxylic acid] |
| < 10 | COc1ccc2oc(C(=O)Nc3scc(-c4ccc(C)c(F)c4F)c3C(=O)O)nc2c1 [4-(2,3-difluoro-4-methylphenyl)-2-(5-methoxybenzo[d]oxazole-2-carboxamido)thiophene-3-carboxylic acid] |
| < 10 | O=C(O)c1c(-c2ccc(Cl)cc2)csc1NC(=O)C1COc2ccccc2O1 (stereo not shown) [4-(4-chlorophenyl)-2-(2,3-dihydrobenzo[b][1,4]dioxine-2-carboxamido)thiophene-3-carboxylic acid] |
| < 10 | O=C(Nc1scc(-c2cc(F)c(Cl)c(F)c2)c1C(=O)O)c1cc2ccccc2o1 [2-(benzofuran-2-carboxamido)-4-(4-chloro-3,5-difluorophenyl)thiophene-3-carboxylic acid] |
| < 10 | O=C(O)c1c(-c2ccc(Cl)cc2)csc1NC(=O)N1Cc2ccccc2C1 [4-(4-chlorophenyl)-2-(isoindoline-2-carboxamido)thiophene-3-carboxylic acid] |

| SMILES | IC50 [µM] |
| --- | --- |
| CC(=O)Oc1cccc2cc(-c3csc(NC(=O)c4cc5ccccc5o4)c3C(=O)O)oc12 [4-(7-acetoxybenzofuran-2-yl)-2-(benzofuran-2-carboxamido)thiophene-3-carboxylic acid] | < 10 |

— patent publication US8394848B2, “Compounds that modulate intracellular calcium” (Calcimedica, Inc., priority 2008, dated 2013)
